Structures can show the parent of a compound that is named as a salt.

In one experiment the target is FGFR2 (Homo sapiens, UniProt P21802). Nature of the experiment: FGFR wild type enzyme assay (HTRF KinEASE-TK), FGFR2. The conditions noted are these: Enz FGFR2 (nM). A general note: Time-resolved FRET reads energy transfer from a long-lived donor to a nearby acceptor.
FGFR2, sequence (P21802 399-821 limits assumed): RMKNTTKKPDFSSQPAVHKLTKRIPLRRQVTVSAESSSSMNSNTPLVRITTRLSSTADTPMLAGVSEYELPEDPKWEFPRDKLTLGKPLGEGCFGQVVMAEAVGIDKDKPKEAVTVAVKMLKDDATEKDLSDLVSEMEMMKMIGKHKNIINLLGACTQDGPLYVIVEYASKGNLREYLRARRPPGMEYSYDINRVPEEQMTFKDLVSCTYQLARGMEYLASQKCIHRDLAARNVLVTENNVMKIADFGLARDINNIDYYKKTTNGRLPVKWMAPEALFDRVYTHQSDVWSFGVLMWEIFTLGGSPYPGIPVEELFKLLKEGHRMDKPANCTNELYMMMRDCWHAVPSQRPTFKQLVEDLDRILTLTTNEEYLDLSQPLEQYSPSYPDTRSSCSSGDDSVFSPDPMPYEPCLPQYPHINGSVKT
As for `Cn1nccc1Sc1cc(-c2cnn(C3CCNCC3)c2)cn2ncc(C#N)c12` [Example 61, 4-((1-methyl-1H-pyrazol-5-yl)thio)-6-(1-(piperidin-4-yl)-1H-pyrazol-4-yl)pyrazolo[1,5-a]pyridine-3-carbonitrile, HCl], half-maximal inhibition (IC50) required 9 nM. `CC(C)Sc1cc(-c2cnn([C@H]3CCCNC3)c2)cn2ncc(C#N)c12` [Example 52, 4-isopropylsulfanyl-6-[1-[(3S)-3-piperidyl]pyrazol-4-yl]pyrazolo[1,5-a]pyridine-3-carbonitrile]: the 50% inhibitory concentration (IC50) was found to be 2 nM. The same measure, in the same setting: the figure for `Cc1c(-c2cc(Sc3ccccc3F)c3c(C#N)cnn3c2)cnn1C1CCNCC1` [Example 118, 4-(2-fluorophenyl)sulfanyl-6-[5-methyl-1-(4-piperidyl)pyrazol-4-yl]pyrazolo[1,5-a]pyridine-3-carbonitrile] is 1 nM; for `Cc1c(-c2cc(Sc3ccccc3C#N)c3c(C#N)cnn3c2)cnn1[C@@H]1CCNC1` [Example 106, 4-(2-cyanophenyl) sulfanyl-6-[5-methyl-1-[(3R)-pyrrolidin-3-yl]pyrazol-4-yl]pyrazolo[1,5-a]pyridine-3-carbonitrile] it is 2 nM; for `N#Cc1cnn2cc(-c3cnn([C@H]4CCCNC4)c3)cc(Sc3cnccn3)c12` [Example 55, 6-[1-[(3S)-3-piperidyl]pyrazol-4-yl]-4-pyrazin-2-ylsulfanyl-pyrazolo[1,5-a]pyridine-3-carbonitrile] it is 13 nM.

Staying with this experiment, now noted: Enz FGFR2 (nM), FGFR2 wild type enzyme.
`Cc1c(-c2cc(Sc3ncccc3F)c3c(C#N)cnn3c2)cnn1C1CCN(C(=O)[C@@H](C)N(C)C)CC1` [Example 214, 6-(1-(1-(dimethyl-D-alanyl)piperidin-4-yl)-5-methyl-1H-pyrazol-4-yl)-4-((3-fluoropyridin-2-yl)thio)pyrazolo[1,5-a]pyridine-3-carbonitrile] had an IC50 of 1.6 nM. This counts as single-digit nanomolar. On the same count and under the same terms, the figure for `Cc1c(-c2cc(Sc3ccc(F)cc3C#N)c3c(C#N)cnn3c2)cnn1C1CCNCC1` [Example 135, 4-4-((2-cyano-4-fluorophenyl)thio)-6-(5-methyl-1-(piperidin-4-yl)-1H-pyrazol-4-yl)pyrazolo[1,5-a]pyridine-3-carbonitrile] is 1 nM; for `Cc1c(-c2cc(Sc3ncc(F)cc3F)c3c(C#N)cnn3c2)cnn1C1CCN(C(=O)CO)CC1` [Example 191, 4-((3,5-difluoropyridin-2-yl)thio)-6-(1-(1-(2-hydroxyacetyl)piperidin-4-yl)-5-methyl-1H-pyrazol-4-yl)pyrazolo[1,5-a]pyridine-3-carbonitrile] it is 4 nM; for `N#Cc1cnn2cc(-c3cnn4c3CNCC4)cc(Sc3ncccc3F)c12` [Example 183, 4-((3-fluoropyridin-2-yl)thio)-6-(4,5,6,7-tetrahydropyrazolo[1,5-a]pyrazin-3-yl)pyrazolo[1,5-a]pyridine-3-carbonitrile] it is 8 nM. Regarding `CC(=O)N1CC[C@]2(CC[C@@H](n3ncc(-c4cc(Sc5ncccc5F)c5c(C#N)cnn5c4)c3C)CC2)C1` [Example 225, 6-(1-((5r,8r)-2-acetyl-2-azaspiro[4.5]decan-8-yl)-5-methyl-1H-pyrazol-4-y)-4-((3-fluoropyridin-2-yl)thio)pyrazolo[1,5-a]pyridine-3-carbonitrile], the IC50 came out at 1 nM. Compared with the last molecule, the IC50 is about 8-fold lower. Same read-out and setting: the figure for `Cc1c(-c2cc(Sc3ncccc3F)c3c(C#N)cnn3c2)cnn1C1CCN(CC(=O)N(C)C)CC1` [Example 195, 2-(4-(4-(3-cyano-4-((3-fluoropyridin-2-yl)thio)pyrazolo[1,5-a]pyridin-6-yl)-5-methyl-1H-pyrazol-1-yl)piperidin-1-yl)-N,N-dimethylacetamide] is 1.4 nM. On the same count and under the same terms, under `Cc1nn([C@H]2CC[C@@H](O)CC2)cc1-c1cc(Sc2ccccc2C#N)c2c(C#N)cnn2c1` [Example 313, 4-((2-cyanophenyl)thio)-6-(1-((1s,4s)-4-hydroxycyclohexyl)-3-methyl-1H-pyrazol-4-yl)pyrazolo[1,5-a]pyridine-3-carbonitrile] stands 1 nM.

Still in this experiment, the particulars now being: Enz FGFR2 (nM), FGFR2 wild type enzyme assay.
The molecule `Cn1cc(-c2cc(Sc3ncccc3F)c3c(C#N)cnn3c2)c(N)n1` [Example 617, 6-(3-amino-1-methyl-1H-pyrazol-4-yl)-4-((3-fluoropyridin-2-yl)thio)pyrazolo[1,5-a]pyridine-3-carbonitrile] showed an IC50 of 6 nM.

As for `CN(C)c1ccc(-c2cc(Sc3ccccc3C#N)c3c(C#N)cnn3c2)cn1` [Example 580, 4-((2-cyanophenyl)thio)-6-(6-(dimethylamino)pyridin-3-yl)pyrazolo[1,5-a]pyridine-3-carbonitrile], the IC50 is 1 nM. This IC50 lies about 6-fold lower than the previous one. In turn, `N#Cc1ccccc1Sc1cc(-c2cnn([C@@H]3CCCNC3)c2)cn2ncc(C#N)c12` [Example 535, (R)-4-((2-cyanophenyl)thio)-6-(1-(piperidin-3-yl)-1H-pyrazol-4-yl)pyrazolo[1,5-a]pyridine-3-carbonitrile] had a half-inhibitory concentration (IC50) of 0.4 nM. Compared with the last molecule, the IC50 is about 2.5-fold lower.

Molecule `Cc1c(-c2cc(Sc3ccc(F)cc3C#N)c3c(C#N)cnn3c2)cnn1C[C@H](O)CO` [Example 531, (S)-4-((2-cyano-4-fluorophenyl)thio)-6-(1-(2,3-dihydroxypropyl)-5-methyl-1H-pyrazol-4-yl)pyrazolo[1,5-a]pyridine-3-carbonitrile] showed an IC50 of 11 nM. Against the preceding molecule, the IC50 is about 28-fold higher. Take `N#Cc1ccccc1Sc1cc(-c2cnn(C(CO)CO)c2)cn2ncc(C#N)c12` [Example 525, 4-((2-cyanophenyl)thio)-6-(1-(1,3-dihydroxypropan-2-yl)-1H-pyrazol-4-yl)pyrazolo[1,5-a]pyridine-3-carbonitrile]: it took 1 nM to reach half-maximal inhibition (IC50).

As for `Cc1cccc(Sc2cc(-c3cnn(C4CCN(C)CC4)c3C)cn3ncc(C#N)c23)c1C#N` [Example 355, 4-((2-cyano-3-methylphenyl)thio)-6-(5-methyl-1-(1-methylpiperidin-4-yl)-1H-pyrazol-4-yl)pyrazolo[1,5-a]pyridine-3-carbonitrile], the IC50 was 2 nM. This IC50 is about 2-fold higher than that of the molecule before. Still for that read-out and setting: under `Cc1c(-c2cc(Sc3ccc(F)cc3C#N)c3c(C#N)cnn3c2)cnn1[C@H]1CC[C@](O)(CO)CC1` [Example 470, 4-((2-cyano-4-fluorophenyl)thio)-6-(1-((1s,4s)-4-hydroxy-4-(hydroxymethyl)cyclohex-yl)-5-methyl-1H-pyrazol-4-yl)pyrazolo[1,5-a]pyridine-3-carbonitrile] stands 1 nM. As to `CC(C)(C)n1cc(-c2cc(Sc3ccccc3C#N)c3c(C#N)cnn3c2)cn1` [Example 493, 6-(1-(tert-butyl)-1H-pyrazol-4-yl)-4-((2-cyanophenyl)thio)pyrazolo [1,5-a]pyridine-3-carbonitrile], the IC50 stood at 1 nM. This counts as single-digit nanomolar. Turning to `Cc1c(-c2cc(Sc3ccc(F)cn3)c3c(C#N)cnn3c2)cnn1[C@H]1CCCN(C)C1` [Example 343, (S)-4-((5-fluoropyridin-2-yl)thio)-6-(5-methyl-1-(1-methylpiperidin-3-yl)-1H-pyrazol-4-yl)pyrazolo[1,5-a]pyridine-3-carbonitrile], half-maximal inhibition (IC50) was put at 9 nM.

`N#Cc1ccccc1Sc1cc(-c2cnn(C(F)(F)F)c2)cn2ncc(C#N)c12` [Example 607, 4-((2-cyanophenyl)thio)-6-(1-(trifluoromethyl)-1H-pyrazol-4-yl)pyrazolo[1,5-a]pyridine-3-carbonitrile] showed an IC50 of 10 nM.

For `C[C@H](O)C(=O)N1CCC[C@H](n2cc(-c3cc(Sc4ccccc4C#N)c4c(C#N)cnn4c3)cn2)C1` [Example 532, 4-((2-cyanophenyl)thio)-6-(1-((S)-1-((S)-2-hydroxypropanoyl)piperidin-3-yl)-1H-pyrazol-4-yl)pyrazolo[1,5-a]pyridine-3-carbonitrile], it took 0.5 nM to reach half-maximal inhibition (IC50). Consider `N#Cc1ccccc1Sc1cc(-c2cnn(CC(=O)N3CC[C@H](O)C3)c2)cn2ncc(C#N)c12` [Example 651, (S)-4-((2-cyanophenyl)thio)-6-(1-(2-(3-hydroxypyrrolidin-1-yl)-2-oxoethyl)-1H-pyrazol-4-yl)pyrazolo[1,5-a]pyridine-3-carbonitrile], for which half-maximal inhibition (IC50) was put at 1 nM. For `N#Cc1ccccc1Sc1cc(-c2cnn([C@H]3CCCN(C(=O)CO)C3)c2)cn2ncc(C#N)c12` [Example 517, (S)-4-((2-cyanophenyl)thio)-6-(1-(1-(2-hydroxyacetyl)piperidin-3-yl)-1H-pyrazol-4-yl)pyrazolo[1,5-a]pyridine-3-carbonitrile], half-maximal inhibition (IC50) was put at 0.4 nM. `Cc1c(-c2cc(Sc3ccccc3C#N)c3c(C#N)cnn3c2)cnn1[C@H]1CCNC(=O)C1` [Example 644] registered an IC50 of 1.6 nM. The same measure, in the same setting: the figure for `Cc1c(-c2cc(Sc3ccc(F)cc3C#N)c3c(C#N)cnn3c2)cnn1[C@@H]1CCC[C@H](O)C1` [Example 499, 4-((2-cyano-4-fluorophenyl)thio)-6-(1-((1R,3S)-3-hydroxycyclohexyl)-5-methyl-1H-pyrazol-4-yl)pyrazolo[1,5-a]pyridine-3-carbonitrile] is 1 nM. `N#Cc1cc(F)ccc1Sc1cc(-c2ccc(N3CCCC3)nc2)cn2ncc(C#N)c12` [Example 559, 4-((2-cyano-4-fluorophenyl)thio)-6-(6-(pyrrolidin-1-yl)pyridin-3-yl)pyrazolo[1,5-a]pyridine-3-carbonitrile]: half-maximal inhibition (IC50) required 1 nM. This lies in the single-digit nanomolar range.

Take `CC(=O)N1CCC(n2ncc(-c3cc(Sc4ccccc4C#N)c4c(C#N)cnn4c3)c2C)CC1` [Example 436, 6-(1-(1-acetylpiperidin-4-yl)-5-methyl-1H-pyrazol-4-yl)-4-((2-cyanophenyl)thio)pyrazolo [1,5-a]pyridine-3-carbonitrile]: half-maximal inhibition (IC50) required 1 nM.

`Cc1c(-c2cc(Sc3ccc(F)cc3C#N)c3c(C#N)cnn3c2)cnn1[C@H]1CNC(C)(C)C1` [Example 440, (R)-4-((2-cyano-4-fluorophenyl)thio)-6-(1-(5,5-dimethylpyrrolidin-3-yl)-5-methyl-1H-pyrazol-4-yl)pyrazolo[1,5-a]pyridine-3-carbonitrile] came in with an IC50 of 2 nM. On the same count and under the same terms, under `CC(=O)N1CCC(n2cc(-c3cc(Sc4ncccc4F)c4c(C#N)cnn4c3)c(C)n2)CC1` [Example 401, 6-(1-(1-acetylpiperidin-4-yl)-3-methyl-1H-pyrazol-4-yl)-4-((3-fluoropyridin-2-yl)thio)pyrazolo[1,5-a]pyridine-3-carbonitrile] stands 7 nM.

In general, IC50 refers to the concentration that gives 50% inhibition. A higher IC50 goes with weaker potency.

These data come from patent US20240270741A1 (Cogent Biosciences, Inc., priority 2023, published 2024).
